Source: PMC8470770, “Characterization of a Primate Blood-Brain Barrier Co-Culture Model Prepared from Primary Brain Endothelial Cells, Pericytes and Astrocytes” (Pharmaceutics, 2021)
Read-outs that look alike come from different tables or passages of the source.

Experiments:
[1] = test system: rat BBB co-culture model (EPA); set-up: method as in PMID 22906709; settings: cited from earlier work; for Rat BBB Papp A-B: apical to basal; for Rat BBB Papp B-A: basal to apical
in vitro = settings: cynomolgus monkey (Macaca fascicularis)
Experimental: To prepare the in vitro co-culture models (EPA), pericytes (2 × 10^4 cells/cm^2) were cultured on the bottom sides of collagen-coated culture inserts (Transwell clear, polyester membrane, 0.4 μm pore size, Corning Costar, NY, USA), and astrocytes (0.5 × 10^5 cell/cm^2) were seeded on the collagen-coated well of a 24-well culture plate. Cells were let to adhere overnight, and endothelial cells (2 × 10^5 cells/cm^2) were seeded on the inside of the inserts (top side of the membranes) and placed in the wells of the 24-well culture plates. An endothelial cell monolayer model (E00) was constructed by a similar method as the co-culture model, except for the procedure of seeding of pericytes and astrocytes. BBB models were maintained in RBEC medium supplemented with 550 nM hydrocortisone.
The permeability of the same 10 drugs was measured in the apical-to-basolateral (A-B) and basolateral-to-apical (B-A) directions as described in our previous study. All test compounds were dissolved in DMSO to yield a 10 mM solution, which was further diluted to 10 μM in HBSS-Hepes buffer (Hank’s Buffered Salt Solution containing 25 mM Hepes). […] The concentration of test compounds in the samples was determined by a Merck–Hitachi LaChrom HPLC with UV–VIS or a fluorescence detector (Merck, Darmstadt, Germany). […] Apparent permeability coefficients (Papp) were calculated using the following equation: Papp = (dQ/dT)/(A × C0), where dQ/dT is the cumulative amount in the receiver compartment versus time, A is the surface of the filter, and C0 is the initial concentration of the tracer in the luminal compartments.

[2] = test system: primary triple co-culture monkey BBB model; settings: cited from earlier work
[3] = set-up: method as in PMID 22906709; settings: cited from earlier work
[4] = Sodium fluorescein permeability (Pe) of monkey BBB mono- and co-culture models; type: in vitro ADME; settings: cynomolgus monkey (Macaca fascicularis), 10 μg/mL Na-F, read-out: endothelial permeability coefficient for sodium fluorescein (Na-F Pe)
Experimental: (§1) To evaluate the barrier function in different BBB models, transendothelial electrical resistance (TEER) was measured by an EVOM resistance meter and Endohm chamber (World Precision Instruments, Sarasota, FL, USA). The resistance values of blank inserts (background resistance) were subtracted from values of inserts with cells. TEER data are shown as Ω × cm^2. The permeability of sodium fluorescein (Na-F, MW: 376 Da) was also determined, and used as an index of paracellular transport. Cell culture inserts were transferred to 24-well plates containing 0.9 mL assay buffer (Dulbecco’s PBS (D-PBS) containing 0.9 mM CaCl2, 0.5 mM MgCl2, 4.5 g/L glucose, and 10 mM HEPES; pH 7.4). The luminal culture medium was replaced with 0.2 mL of assay buffer containing 10 μg/mL Na-F. Fifteen or 45 min after Na-F addition, the inserts were transferred to new wells containing the assay buffer. […] Transendothelial permeability coefficient (Pe) was calculated as previously described.

[5] = test system: P-glycoprotein (P-gp, ABCB1); assay: Bidirectional transport of rhodamine 123 across MBECs; settings: 5 μM R123, 1 h, 37 °C; MBEC
Experimental: For bidirectional transport assay, the flux of 5 μM R123 in assay buffer was measured for 1 h at 37 °C in the luminal-to-abluminal and in the opposite abluminal-to-luminal directions. After measuring the R123 content in samples collected from both compartments, Pe values were calculated.

SLC35F2 = test system: SLC35F2; set-up: method as in PMID 33144341; settings: monkey BBB kit; famotidine as inhibitor; cited from earlier work
[6] = test system: monkey co-culture BBB model (EPA); assay: Effect of TGF-β1 on barrier integrity (TEER) in monkey co-culture BBB model (EPA); type: cell-based, Macaca fascicularis; settings: TGF-β1 1 ng/mL, 3, 6, and 12-h time points
Experimental: as §1

[7] = test system: receptors for advanced glycation end-product (RAGE); settings: cited from earlier work

## Cn1c(=O)c2c(ncn2C)n(C)c1=O [Caffeine]
[1]
  Rat BBB Papp A-B: 64.95 ×10⁻⁶ cm/s
  Rat BBB Papp B-A: 59.91 ×10⁻⁶ cm/s
In vitro
  Papp A→B at 10 μM: 60.5 ×10⁻⁶ cm/s
  Papp B→A at 10 μM: 65.2 ×10⁻⁶ cm/s
[2]
  mean Papp across the monkey BBB model: 71.7 ± 3.2 × 10^−6 cm/s
[3]
  Mouse In Vivo Papp: 11.11 ×10⁻⁶ cm/s

## CN/C(=N/CCSCc1nc[nH]c1C)NC#N [Cimetidine]
[1]
  Rat BBB Papp A-B: 3.86 ×10⁻⁶ cm/s
  Rat BBB Papp B-A: 2.8 ×10⁻⁶ cm/s
  Rat BBB Efflux Ratio: 0.75
In vitro
  Papp A→B at 10 μM: 3 ×10⁻⁶ cm/s
  Papp B→A at 10 μM: 2.88 ×10⁻⁶ cm/s
  efflux ratio at 10 μM: 0.97
[3]
  Mouse In Vivo Papp: 0.2 ×10⁻⁶ cm/s

## C[C@H]1O[C@@H](O[C@H]2[C@@H](O)C[C@H](O[C@H]3[C@@H](O)C[C@H](O[C@H]4CC[C@@]5(C)[C@H](CC[C@@H]6[C@@H]5C[C@@H](O)[C@]5(C)[C@@H](C7=CC(=O)OC7)CC[C@]65O)C4)O[C@@H]3C)O[C@@H]2C)C[C@H](O)[C@@H]1O [Digoxin]
[3]
  Mouse In Vivo Papp: 0.1 ×10⁻⁶ cm/s

## COc1ccc2c(c1)c(CC(=O)O)c(C)n2C(=O)c1ccc(Cl)cc1 [Indomethacin]
[1]
  Rat BBB Papp A-B: 33.63 ×10⁻⁶ cm/s
  Rat BBB Papp B-A: 44.07 ×10⁻⁶ cm/s
  Rat BBB Efflux Ratio: 1.31
In vitro
  Papp A→B at 10 μM: 32.7 ×10⁻⁶ cm/s
  Papp B→A at 10 μM: 39.1 ×10⁻⁶ cm/s
  efflux ratio at 10 μM: 1.2
[3]
  Mouse In Vivo Papp: 0.13 ×10⁻⁶ cm/s

## CN(C)C(=O)C(CCN1CCC(O)(c2ccc(Cl)cc2)CC1)(c1ccccc1)c1ccccc1 [Loperamide]
[1]
  Rat BBB Papp A-B: 15.57 ×10⁻⁶ cm/s
  Rat BBB Papp B-A: 21.76 ×10⁻⁶ cm/s
[3]
  Mouse In Vivo Papp: 1.05 ×10⁻⁶ cm/s

## O=C1OC2(c3ccc(O)cc3Oc3cc(O)ccc32)c2ccccc21 [Na-F, sodium fluorescein]
[4]; pH 7.4, MBEC co-culture with rat pericytes (EP0)
  Papp at 10 μg/mL: 0.74 ± 0.06 ×10⁻⁶ cm/s
[4]; pH 7.4, MBEC co-culture with rat pericytes and astrocytes (EPA)
  Papp at 10 μg/mL: 0.69 ± 0.07 ×10⁻⁶ cm/s
[4]; pH 7.4, monolayer MBEC model (E00)
  Papp at 10 μg/mL: 2.44 ± 0.04 ×10⁻⁶ cm/s

## C=C[C@H]1C[N@@]2CC[C@H]1C[C@@H]2[C@@H](O)c1ccnc2ccc(OC)cc12 [Quinidine]
[1]
  Rat BBB Papp A-B: 6.28 ×10⁻⁶ cm/s
  Rat BBB Papp B-A: 12.11 ×10⁻⁶ cm/s
[3]
  Mouse In Vivo Papp: 1.69 ×10⁻⁶ cm/s

## COC(=O)c1ccccc1-c1c2ccc(=N)cc-2oc2cc(N)ccc12 [R123, rhodamine 123]
[5]
  transport of R123 from brain side to blood side (B-A) versus opposite direction (A-B): almost four-fold higher

## CC[C@]1(O)C[C@@H]2CN(CCc3c([nH]c4ccccc34)[C@@](C(=O)OC)(c3cc4c(cc3OC)N(C)[C@H]3[C@@](O)(C(=O)OC)[C@H](OC(C)=O)[C@]5(CC)C=CCN6CC[C@]43[C@@H]65)C2)C1 [Vinblastine]
[1]
  Rat BBB Papp A-B: 2.42 ×10⁻⁶ cm/s
  Rat BBB Papp B-A: 1.39 ×10⁻⁶ cm/s
  Rat BBB Efflux Ratio: 0.69
In vitro
  Papp A→B at 10 μM: 1.47 ×10⁻⁶ cm/s
  Papp B→A at 10 μM: 2.14 ×10⁻⁶ cm/s
  efflux ratio at 10 μM: 1.46
[3]
  Mouse In Vivo Papp: 1.43 ×10⁻⁶ cm/s

## COCCn1c2c([n+](Cc3cnccn3)c1C)C(=O)c1ccccc1C2=O [YM155, sepantronium bromide]
SLC35F2
  BBB permeability and intraendothelial accumulation (SLC35F2 substrate transport): famotidine-inhibitable BBB permeability and intraendothelial accumulation

## O=C1Nc2ccc(Cl)cc2[C@@](C#CC2CC2)(C(F)(F)F)O1 [efavirenz]
[2]
  mean Papp across the monkey BBB model: 1.44e-05 cm/s

## COc1cc2c(cc1Cc1cccc(Cl)c1F)c(=O)c(C(=O)O)cn2[C@H](CO)C(C)C [elvitegravir]
[2]
  mean Papp across the monkey BBB model: 1.86e-05 cm/s

## O=c1c(O)c(-c2cc(O)c(O)c(O)c2)oc2cc(O)cc(O)c12 [myricetin]
[2]
  Papp in the monkey BBB model: 2.5 ×10⁻⁶ cm/s

## Cc1ccnc2c1NC(=O)c1cccnc1N2C1CC1 [nevirapine]
[2]
  mean Papp across the monkey BBB model: 3.2e-05 cm/s

## Cc1nnc(C(=O)NC(C)(C)c2nc(C(=O)NCc3ccc(F)cc3)c(O)c(=O)n2C)o1 [raltegravir]
[2]
  mean Papp across the monkey BBB model: 1.02e-05 cm/s

## TGF-β1: cytokine transforming growth factor β1
[6]
  decrease in TEER values compared to medium treated group: ~ 30%

## oxytocin
[7]
  reduction of blood-to-brain direction transport when RAGE was silenced by shRNA: approximately 70%
